Test results from patent publication US7446091B2, “Methods and preparations for curing clinically ill patients” (Novo Nordisk A/S, priority 2000, dated 2008).

Test system: mechanically ventilated, adult patients admitted to the intensive care unit (ICU)
Test: Example 2: prospective, randomized, controlled study, morbidity analysis
Assay type: in vivo, human
Text: All mechanically ventilated, adult patients admitted to the intensive care unit (ICU) were eligible for inclusion.
At baseline, demographic, diagnostic and therapeutic information as well as information necessary to determine severity of illness and utilization of ICU resources were obtained from each patient (Table 1). These included APACHE-II (Acute Physiology and Chronic Health Evaluation) score with higher values indicating more severe illness (see Knaus) and simplified Therapeutic Intervention Scoring System (TISS-28) with higher values indicating a higher number of therapeutic interventions (see Reis Miranda & Keene). APACHE II and TISS scores were calculated daily from ICU admission to discharge or death.
A blood sample was taken upon ICU admission and daily at 06:00 h until discharge from ICU or death. On-admission and daily morning, whole blood glucose level as well as daily maximal and minimal glycemia were analysed. Analyses on the 06:00 h sample also included clinical chemistry, hematology and markers of inflammation.
Blood cultures were taken whenever continously monitored central body temperature acutely rose above 38.5° C. Results from all blood cultures were interpreted by the same blinded investigator. An episode of bacteremia, fungemia or mycobacteremia was defined by the first positive blood culture in a series. To identify a blood stream infection with coagulase-negative staphylocci, identical strains (compared by antibiogram) of microorganisms in two or more positive blood cultures were required (see Weinstein 1997 and Weinstein 1998).
In patients treated in ICU for more than one week, a weekly electromyography (EMG) was performed to screen for Critical Illness Polyneuropathy. EMGs were interpreted by the same electrophysiologist who was blinded for randomization. In case of ICU death, a post-mortem examination was performed to confirm the presumed cause of death.
The primary outcome measure was death from all causes during intensive care. Secondary outcome measures were in-hospital mortality, incidence of prolonged intensive care dependency and need for ICU re-admission, need for vital organ system support comprising mechanical ventilatory support, renal replacement therapy (continuous or intermittent hemofiltration or dialysis), inotropic or vasopressor support, incidence of critical illness polyneuropathy, the degree of inflammation, incidence of blood stream infections and use of antibiotics, transfusion requirements and incidence of hyperbilirubinemia. Furthermore, use of intensive care resources was analysed by cumulative TISS scores. In order to accurately and objectively assess duration of ICU stay, which is often influenced by non-patient related factors such as bed availability on regular wards, patients were defined ‘dischargable from ICU’ when they were no longer in need of vital organ system support and received at least ⅔rd of the caloric need through the normal enteral route or earlier when actually sent to a ward.
Baseline and outcome variables were compared using Student's t-test, Chi-square test and Mann-Whitney-U test, as appropriate. Death odds ratios were calculated using multivariate logistic regression analysis. The effect on time of in-hospital death was assessed by Kaplan-Meier analysis and logrank (Mantel-Cox) significance testing. Patients discharged from the hospital were considered as survivors. Data are presented as percentages, means ±SD or medians (25th-75th percentile) unless indicated otherwise.

insulin
>3 days C-reactive protein level above 150 mg/L (%) (IIS): (15%) | >3 days C-reactive protein level above 150 mg/L - total no. (IIS): 119 | >3 days central body temperature ≤36° C. or […]38° C. (%) (IIS): (21%) | >3 days central body temperature ≤36° C. or […]38° C. - total no. (IIS): 164 | >3 days white blood cell count ≤4000/μL or […]12000/μL (%) (IIS): (16%) | >3 days white blood cell count ≤4000/μL or […]12000/μL - total no. (IIS): 121 | Lowest level of hemoglobin (g/dL) when transfused (median) (IIS): 8.3 g/dL | Number of patients requiring red cell transfusion (%) (IIS): (29%) | Number of patients requiring red cell transfusion - total no (IIS): 219 | Patients needing dialysis or CVVH (%) (IIS): (4.8%) | Patients needing dialysis or CVVH - total no (IIS): 37 | Patients on inotropic/vasopressor treatment (%) (IIS): (75%) | Patients on inotropic/vasopressor treatment - total no. (IIS): 574 | Patients requiring >7 days intensive care (%) (IIS): (20.5%) | Patients requiring >7 days intensive care - total no (IIS): 157 | Patients requiring >7 days ventilatory support (%) (IIS): (16.9%) | Patients requiring >7 days ventilatory support - total no. (IIS): 125 | Patients requiring >14 days intensive care (%) (IIS): (11.4%) | Patients requiring >14 days intensive care - total no (IIS): 87 | Patients requiring >14 days ventilatory support (%) (IIS): (7.7%) | Patients requiring >14 days ventilatory support - total no. (IIS): 57 | Patients requiring >21 days intensive care (%) (IIS): (6.5%) | Patients requiring >21 days intensive care - total no (IIS): 50 | Patients requiring >21 days ventilatory support (%) (IIS): (5.0%) | Patients requiring >21 days ventilatory support - total no. (IIS): 37 | Patients treated with antibiotics for >10 days (%) (IIS): (11.2%) | Patients treated with antibiotics for >10 days - total no. (IIS): 86 | Patients with an ICU stay of >5 days (IIS): 27% | Patients with blood stream infections during intensive care (%) (IIS): (4.2%) | Patients with blood stream infections during intensive care - total no (IIS): 32 | Patients with critical illness polyneuropathy (% of EMG-screened) (IIS): (29%) | Patients with hyperbilirubinemia (peak bilirubin >2 mg/dL) (%) (IIS): (22%) | Patients with hyperbilirubinemia (peak bilirubin >2 mg/dL) - total no. (IIS): 171 | Peak plasma creatinine >2.5 mg/dL (%) (IIS): (9.0%) | Peak plasma creatinine >2.5 mg/dL - total no. (IIS): 69 | Peak plasma urea concentration >150 mg/dL (%) (IIS): (7.7%) | Peak plasma urea concentration >150 mg/dL - total no. (IIS): 59 | Repetitive (>2) positive EMGs (% of EMG screened) (IIS): (7%) | Repetitive (>2) positive EMGs - total no (IIS): 11 | >3 days C-reactive protein level above 150 mg/L, NNT (IIS vs RIS): 17 | >3 days C-reactive protein level above 150 mg/L, RRR (%) (IIS vs RIS): 29% | >3 days abnormal central body temperature, NNT (IIS vs RIS): 20 | >3 days abnormal central body temperature, RRR (%) (IIS vs RIS): 19% | >3 days abnormal white blood cell count, NNT (IIS vs RIS): 20 | >3 days abnormal white blood cell count, RRR (%) (IIS vs RIS): 24% | In-hospital stay, difference between the two study groups (IIS vs RIS): not detectably different | Patients needing dialysis or CVVH, NNT (IIS vs RIS): 29 | Patients needing dialysis or CVVH, RRR (%) (IIS vs RIS): 42% | Patients on inotropic/vasopressor treatment, RRR (%) (IIS vs RIS): = | Patients requiring >7 days intensive care, NNT (IIS vs RIS): 17 | Patients requiring >7 days intensive care, RRR (%) (IIS vs RIS): 22% | Patients requiring >7 days ventilatory support, NNT (IIS vs RIS): 16 | Patients requiring >7 days ventilatory support, RRR (%) (IIS vs RIS): 27% | Patients requiring >14 days intensive care, NNT (IIS vs RIS): 23 | Patients requiring >14 days intensive care, RRR (%) (IIS vs RIS): 27% | Patients requiring >14 days ventilatory support, NNT (IIS vs RIS): 22 | Patients requiring >14 days ventilatory support, RRR (%) (IIS vs RIS): 37% | Patients requiring >21 days intensive care, NNT (IIS vs RIS): 33 | Patients requiring >21 days intensive care, RRR (%) (IIS vs RIS): 32% | Patients requiring >21 days ventilatory support, NNT (IIS vs RIS): 31 | Patients requiring >21 days ventilatory support, RRR (%) (IIS vs RIS): 39% | Patients treated with antibiotics for >10 days, NNT (IIS vs RIS): 17 | Patients treated with antibiotics for >10 days, RRR (%) (IIS vs RIS): 35% | Patients with blood stream infections, NNT (IIS vs RIS): 28 | Patients with blood stream infections, RRR (%) (IIS vs RIS): 46% | Patients with critical illness polyneuropathy, RRR (%) (IIS vs RIS): 44%
